Patent US10538567B2, “Compounds as peptidic trigonal GLP1/glucagon/GIP receptor agonists” (priority 2016, dated 2020)
Numbered stars: 1 amine (or outer) side, 2 acyl side, 3 side chain; on linkers, the order of the positions; unused ones are H or OH. Square brackets hold non-standard residues; d marks the D form. Side chains are listed from the residue outwards. Peptide text beside a SMILES is read from it. * marks the point of attachment. γGlu = O=C(O)[C@H](CCC(=O)[*:2])N[*:1]; Palmitoyl = CCCCCCCCCCCCCCCC(=O)*; Aib = CC(C)(N)C(=O)O

Experiments:
[1] = Chemical stability assessment, UPLC-UV purity loss in buffer system A; format: physicochemical; conditions: 1 mg/ml, 25 mM acetate buffer pH 4.5 with m-cresol
In short: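 Peptide at 1 mg/mL pure compound (purity-corrected) in 25 mM acetate buffer pH 4.5 with L-methionine, m-cresol and glycerol was sterile-filtered and stored 28 days at 5 and 40° C. UPLC-UV purity (peptide peak area/total area) was compared with the starting value to give relative purity loss in %.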

[2] = Thioflavin T (ThT) assay for physical stability (fibrillation); format: physicochemical; conditions: 3 mg/ml, 100 mM acetate pH 4.5 with m-cresol, 37° C. shaking
In short: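 Peptides at 3 mg/ml final with 100 μM ThT final in 100 mM acetate pH 4.5 containing 2.7 mg/mL m-cresol, eight replicates. Stressed at 37° C by repeated cycles of 10 s shaking at 960 rpm and 50 s rest. Fluorescence read every 20 minutes; lag time in hours taken from the sigmoidal kinetic curve.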

[3] = tested on: female diabetic db/db mice; assay: Acute effects after s.c. treatment on blood glucose in non-fasting female diabetic db/db mice; format: in vivo; conditions: single 30 μg/kg s.c.
Procedure: Female healthy, lean BKS.Cg-(lean)/OlaHsd and diabetes-prone, obese BKS.Cg-+Lepr^db/+Lepr^db/OlaHsd mice were ordered group housed from Envigo RMS Inc., shipped group housed and remained group housed in shoebox caging with wood chip bedding until day 15 of the predose phase. At the study start mice were approximately 12 weeks old.
Mice were housed under vivarium conditions including a 12 h light/dark cycle (light phase 04:00 AM-4:00 PM), room temperatures between 23-26° C. and a relative humidity between 30-70%. All animals had free access to water and Purina Fomulab Diet 5008.
On predose day 9 blood glucose and body mass (approximately between 08:00-10:00 AM) as well as HbA1c measurements were performed. On day 15 of the predose phase animals were assigned to treatment groups (n=8) and to new cages to match mean HbA1c and body masses between all db/db groups. An age-matched lean group was included in the study as a healthy, lean reference.
Prior to day 1 of the dosing phase, the test article was diluted with Phosphate Buffered Saline (PBS, Gibco, without CaCl2 and MgCl2) to a concentration of 1 mg/mL and aliquots of this stock solution were stored at approximately ≤−60° C. On day 1 of the dosing phase the stock aliquot was thawed and the injected test article solution was prepared fresh by diluting it with PBS to achieve the desired concentration.
On Day 1 of the dosing phase db/db mice were either treated once with a s.c. injection of PBS-vehicle or 30 μg/kg test article. The lean reference group was treated once with a s.c. injection of PBS-vehicle. The dosing was initiated and completed between 08:00 and 10:00 AM. The applied volume was 5 ml/kg and the dose was adjusted to the most recent body mass recording of each individual.
Animals had unlimited access to water and feed during the experiment. On day 1 of the dosing phase approximately 5 μL of blood were collected via tail clips at minute −30 and 0 prior to any other inlife activities. At minute 0 mice received a s.c. dose of either PBS-vehicle or 30 μg/kg test article. Further blood samples were harvested at hour 0.25, 0.5, 1, 1.5, 2, 3, 4, 6, 8, and 24 post-dose. Glucose measurements were performed in whole blood using AlphaTRAK glucometers. If the glucose concentrations of two measurements differed by more than 20 mg/dL a third value was recorded. The Area Under the Curve (AUC) for blood glucose was calculated via the trapezoid method and for the duration of the 24 post-dose hours.
In the Figures data are depicted as means±SEM. […] A One Way Analysis of Variance and multiple comparisons (Dunnett's Method) were performed comparing the group of diabetic, obese db/db vehicle mice (n=8) with each diabetic, obese db/db test article treated mice (n=8). […] Non-diabetic, lean-vehicle group data are depicted in the Figures serving as a reference dataset for the non-obese, non-diabetic state.

Chemical stability [relative purity loss 28 days 40° C.] (%) at pH 4.5 [1]	Lag time before increase [2]	SMILES	mean blood glucose concentration 24 hours post-dose relative to baseline [3]	time to normalise hyperglycemia to the non-fasting blood glucose concentrations of lean reference mice [3]
6.9%	>45 h	CCCCCCCCCCCCCCCC(=O)N[C@@H](CCC(=O)N[C@@H](CCC(=O)NCCCC[C@H](NC(=O)[C@H](CC(C)C)NC(=O)[C@H](CCCCN)NC(=O)[C@H](CO)NC(=O)[C@H](CC(C)C)NC(=O)[C@H](CC(=O)O)NC(=O)[C@H](CO)NC(=O)[C@@H](NC(=O)[C@H](Cc1ccccc1)NC(=O)[C@@H](NC(=O)CNC(=O)[C@H](Cc1c[nH]cn1)NC(=O)C(C)(C)NC(=O)[C@@H](N)Cc1c[nH]cn1)[C@@H](C)O)[C@@H](C)O)C(=O)N[C@@H](CCC(=O)O)C(=O)N[C@@H](CCC(=O)O)C(=O)N[C@@H](CCC(N)=O)C(=O)N[C@@H](CCCNC(=N)N)C(=O)N[C@@H](CCC(N)=O)C(=O)N[C@@H](CCCCN)C(=O)N[C@@H](CCC(=O)O)C(=O)N[C@@H](Cc1ccccc1)C(=O)N[C@H](C(=O)N[C@@H](CCC(=O)O)C(=O)N[C@@H](Cc1c[nH]c2ccccc12)C(=O)N[C@@H](CC(C)C)C(=O)N[C@@H](CCCCN)C(=O)N[C@@H](C)C(=O)N[C@H](C)C(=O)NCC(=O)N1CCC[C@H]1C(=O)N1CCC[C@H]1C(=O)N[C@@H](CO)C(=O)NC(C)(C)C(=O)N[C@@H](CCCCN)C(=O)N1CCC[C@H]1C(=O)N1CCC[C@H]1C(=O)N1CCC[C@H]1C(=O)N[C@@H](CCCCN)C(N)=O)[C@@H](C)CC)C(=O)O)C(=O)O [SEQ ID NO: 9, H-Aib-H-G-T-F-T-S-D-L-S-K-L-K[gGlu-gGlu-Palm]-E-E-Q-R-Q-K-E-F-I-E-W-L-K-A-dAla-G-P-P-S-Aib-K-P-P-P-K-NH2] (H-H[Aib]HGTFTSDLSKLK([γGlu-γGlu-Palmitoyl])EEQRQKEFIEWLKA[dA]GPPS[Aib]KPPPK-NH2)	at or close to baseline	–
8.8%	>45 h	CCCCCCCCCCCCCCCC(=O)N[C@@H](CCC(=O)N[C@@H](CCC(=O)NCCCC[C@H](NC(=O)[C@H](CC(C)C)NC(=O)[C@H](CCCCN)NC(=O)[C@H](CO)NC(=O)[C@H](CC(C)C)NC(=O)[C@H](CC(=O)O)NC(=O)[C@H](CO)NC(=O)[C@@H](NC(=O)[C@H](Cc1ccccc1)NC(=O)[C@@H](NC(=O)CNC(=O)[C@H](Cc1c[nH]cn1)NC(=O)C(C)(C)NC(=O)[C@@H](N)Cc1c[nH]cn1)[C@@H](C)O)[C@@H](C)O)C(=O)N[C@@H](CCC(=O)O)C(=O)N[C@@H](CCC(=O)O)C(=O)N[C@@H](CCC(N)=O)C(=O)N[C@@H](CCCNC(=N)N)C(=O)N[C@@H](CCC(N)=O)C(=O)NC(C)(C)C(=O)N[C@@H](CCC(=O)O)C(=O)N[C@@H](Cc1ccccc1)C(=O)N[C@H](C(=O)N[C@@H](CCC(=O)O)C(=O)N[C@@H](Cc1c[nH]c2ccccc12)C(=O)N[C@@H](CC(C)C)C(=O)N[C@@H](CCCCN)C(=O)N[C@@H](C)C(=O)N[C@H](C)C(=O)NCC(=O)N1CCC[C@H]1C(=O)N1CCC[C@H]1C(=O)N[C@@H](CO)C(=O)NC(C)(C)C(=O)N[C@@H](CCCCN)C(=O)N1CCC[C@H]1C(=O)N1CCC[C@H]1C(=O)N1CCC[C@H]1C(=O)N[C@@H](CCCCN)C(N)=O)[C@@H](C)CC)C(=O)O)C(=O)O [SEQ ID NO: 11, H-Aib-H-G-T-F-T-S-D-L-S-K-L-K[gGlu-gGlu-Palm]-E-E-Q-R-Q-Aib-E-F-I-E-W-L-K-A-dAla-G-P-P-S-Aib-K-P-P-P-K-NH2] (H-H[Aib]HGTFTSDLSKLK([γGlu-γGlu-Palmitoyl])EEQRQ[Aib]EFIEWLKA[dA]GPPS[Aib]KPPPK-NH2)	still below baseline concentrations	≤ 6 h
8.1%	>45 h	CCCCCCCCCCCCCCCC(=O)N[C@@H](CCC(=O)N[C@@H](CCC(=O)NCCCC[C@H](NC(=O)[C@H](CC(C)C)NC(=O)[C@H](CCCCN)NC(=O)[C@H](CO)NC(=O)[C@H](CC(C)C)NC(=O)[C@H](CC(=O)O)NC(=O)[C@H](CO)NC(=O)[C@@H](NC(=O)[C@H](Cc1ccccc1)NC(=O)[C@@H](NC(=O)CNC(=O)[C@H](Cc1c[nH]cn1)NC(=O)C(C)(C)NC(=O)[C@@H](N)Cc1c[nH]cn1)[C@@H](C)O)[C@@H](C)O)C(=O)N[C@@H](CCC(=O)O)C(=O)N[C@@H](CCC(=O)O)C(=O)N[C@@H](CCC(N)=O)C(=O)N[C@@H](CCCNC(=N)N)C(=O)N[C@@H](CCC(N)=O)C(=O)N[C@@H](CCCCN)C(=O)N[C@@H](CCC(=O)O)C(=O)N[C@@H](Cc1ccccc1)C(=O)N[C@H](C(=O)N[C@@H](CCC(=O)O)C(=O)N[C@@H](Cc1c[nH]c2ccccc12)C(=O)N[C@@H](CC(C)C)C(=O)N[C@@H](CCCCN)C(=O)N[C@@H](C)C(=O)N[C@H](C)C(=O)NCC(=O)N[C@@H](Cc1c[nH]cn1)C(=O)N1CCC[C@H]1C(=O)N[C@@H](CO)C(=O)NC(C)(C)C(=O)N[C@@H](CCCCN)C(=O)N1CCC[C@H]1C(=O)N1CCC[C@H]1C(=O)N1CCC[C@H]1C(=O)N[C@@H](CCCCN)C(N)=O)[C@@H](C)CC)C(=O)O)C(=O)O [SEQ ID NO: 7, H-Aib-H-G-T-F-T-S-D-L-S-K-L-K[gGlu-gGlu-Palm]-E-E-Q-R-Q-K-E-F-I-E-W-L-K-A-dAla-G-H-P-S-Aib-K-P-P-P-K-NH2] (H-H[Aib]HGTFTSDLSKLK([γGlu-γGlu-Palmitoyl])EEQRQKEFIEWLKA[dA]GHPS[Aib]KPPPK-NH2)	at baseline	≤ 6 h
10.6%	>45 h	CCCCCCCCCCCCCCCC(=O)N[C@@H](CCC(=O)N[C@@H](CCC(=O)NCCCC[C@H](NC(=O)[C@H](CC(C)C)NC(=O)[C@H](CCCCN)NC(=O)[C@H](CO)NC(=O)[C@H](CC(C)C)NC(=O)[C@H](CC(=O)O)NC(=O)[C@H](CO)NC(=O)[C@@H](NC(=O)[C@H](Cc1ccccc1)NC(=O)[C@@H](NC(=O)CNC(=O)[C@H](Cc1c[nH]cn1)NC(=O)C(C)(C)NC(=O)[C@@H](N)Cc1c[nH]cn1)[C@@H](C)O)[C@@H](C)O)C(=O)N[C@@H](CCC(=O)O)C(=O)N[C@@H](CCC(=O)O)C(=O)N[C@@H](CCC(N)=O)C(=O)N[C@@H](CCCNC(=N)N)C(=O)N[C@@H](CCC(N)=O)C(=O)NC(C)(C)C(=O)N[C@@H](CCC(=O)O)C(=O)N[C@@H](Cc1ccccc1)C(=O)N[C@H](C(=O)N[C@@H](CCC(=O)O)C(=O)N[C@@H](Cc1c[nH]c2ccccc12)C(=O)N[C@@H](CC(C)C)C(=O)N[C@@H](CCCCN)C(=O)N[C@@H](C)C(=O)NCC(=O)NCC(=O)N1CCC[C@H]1C(=O)N1CCC[C@H]1C(=O)N[C@@H](CO)C(=O)NC(C)(C)C(=O)N[C@@H](CCCCN)C(=O)N1CCC[C@H]1C(=O)N1CCC[C@H]1C(=O)N1CCC[C@H]1C(=O)N[C@@H](CCCCN)C(N)=O)[C@@H](C)CC)C(=O)O)C(=O)O [SEQ ID NO: 10, H-Aib-H-G-T-F-T-S-D-L-S-K-L-K[gGlu-gGlu-Palm]-E-E-Q-R-Q-Aib-E-F-I-E-W-L-K-A-G-G-P-P-S-Aib-K-P-P-P-K-NH2]	at or close to baseline	–
